The source of these data is paper PMC5772529 (Scientific Reports, 2018).

For orientation: IC50 means the concentration needed to halve the response being measured. Broadly, the inhibition is the share of the control response that was lost under treatment.

In one data set the test system is Beagle dogs. Conditions: dog, in vivo.
The target of data set [1] is T1, human CaV2.2 (α1B, β3, α2δ1) (Homo sapiens, UniProt Q00975).
T1 construct: expressed in transfected cells
Briefly: cell-based. On the set-up: Emax: dose or concentration left out as unconfirmed.

Positions of bridges follow the written chain, without caps; N, C: chain ends. Residues, ends and D or L forms follow the SMILES beside them.

T1 sequence (Q00975 whole entry, looked up): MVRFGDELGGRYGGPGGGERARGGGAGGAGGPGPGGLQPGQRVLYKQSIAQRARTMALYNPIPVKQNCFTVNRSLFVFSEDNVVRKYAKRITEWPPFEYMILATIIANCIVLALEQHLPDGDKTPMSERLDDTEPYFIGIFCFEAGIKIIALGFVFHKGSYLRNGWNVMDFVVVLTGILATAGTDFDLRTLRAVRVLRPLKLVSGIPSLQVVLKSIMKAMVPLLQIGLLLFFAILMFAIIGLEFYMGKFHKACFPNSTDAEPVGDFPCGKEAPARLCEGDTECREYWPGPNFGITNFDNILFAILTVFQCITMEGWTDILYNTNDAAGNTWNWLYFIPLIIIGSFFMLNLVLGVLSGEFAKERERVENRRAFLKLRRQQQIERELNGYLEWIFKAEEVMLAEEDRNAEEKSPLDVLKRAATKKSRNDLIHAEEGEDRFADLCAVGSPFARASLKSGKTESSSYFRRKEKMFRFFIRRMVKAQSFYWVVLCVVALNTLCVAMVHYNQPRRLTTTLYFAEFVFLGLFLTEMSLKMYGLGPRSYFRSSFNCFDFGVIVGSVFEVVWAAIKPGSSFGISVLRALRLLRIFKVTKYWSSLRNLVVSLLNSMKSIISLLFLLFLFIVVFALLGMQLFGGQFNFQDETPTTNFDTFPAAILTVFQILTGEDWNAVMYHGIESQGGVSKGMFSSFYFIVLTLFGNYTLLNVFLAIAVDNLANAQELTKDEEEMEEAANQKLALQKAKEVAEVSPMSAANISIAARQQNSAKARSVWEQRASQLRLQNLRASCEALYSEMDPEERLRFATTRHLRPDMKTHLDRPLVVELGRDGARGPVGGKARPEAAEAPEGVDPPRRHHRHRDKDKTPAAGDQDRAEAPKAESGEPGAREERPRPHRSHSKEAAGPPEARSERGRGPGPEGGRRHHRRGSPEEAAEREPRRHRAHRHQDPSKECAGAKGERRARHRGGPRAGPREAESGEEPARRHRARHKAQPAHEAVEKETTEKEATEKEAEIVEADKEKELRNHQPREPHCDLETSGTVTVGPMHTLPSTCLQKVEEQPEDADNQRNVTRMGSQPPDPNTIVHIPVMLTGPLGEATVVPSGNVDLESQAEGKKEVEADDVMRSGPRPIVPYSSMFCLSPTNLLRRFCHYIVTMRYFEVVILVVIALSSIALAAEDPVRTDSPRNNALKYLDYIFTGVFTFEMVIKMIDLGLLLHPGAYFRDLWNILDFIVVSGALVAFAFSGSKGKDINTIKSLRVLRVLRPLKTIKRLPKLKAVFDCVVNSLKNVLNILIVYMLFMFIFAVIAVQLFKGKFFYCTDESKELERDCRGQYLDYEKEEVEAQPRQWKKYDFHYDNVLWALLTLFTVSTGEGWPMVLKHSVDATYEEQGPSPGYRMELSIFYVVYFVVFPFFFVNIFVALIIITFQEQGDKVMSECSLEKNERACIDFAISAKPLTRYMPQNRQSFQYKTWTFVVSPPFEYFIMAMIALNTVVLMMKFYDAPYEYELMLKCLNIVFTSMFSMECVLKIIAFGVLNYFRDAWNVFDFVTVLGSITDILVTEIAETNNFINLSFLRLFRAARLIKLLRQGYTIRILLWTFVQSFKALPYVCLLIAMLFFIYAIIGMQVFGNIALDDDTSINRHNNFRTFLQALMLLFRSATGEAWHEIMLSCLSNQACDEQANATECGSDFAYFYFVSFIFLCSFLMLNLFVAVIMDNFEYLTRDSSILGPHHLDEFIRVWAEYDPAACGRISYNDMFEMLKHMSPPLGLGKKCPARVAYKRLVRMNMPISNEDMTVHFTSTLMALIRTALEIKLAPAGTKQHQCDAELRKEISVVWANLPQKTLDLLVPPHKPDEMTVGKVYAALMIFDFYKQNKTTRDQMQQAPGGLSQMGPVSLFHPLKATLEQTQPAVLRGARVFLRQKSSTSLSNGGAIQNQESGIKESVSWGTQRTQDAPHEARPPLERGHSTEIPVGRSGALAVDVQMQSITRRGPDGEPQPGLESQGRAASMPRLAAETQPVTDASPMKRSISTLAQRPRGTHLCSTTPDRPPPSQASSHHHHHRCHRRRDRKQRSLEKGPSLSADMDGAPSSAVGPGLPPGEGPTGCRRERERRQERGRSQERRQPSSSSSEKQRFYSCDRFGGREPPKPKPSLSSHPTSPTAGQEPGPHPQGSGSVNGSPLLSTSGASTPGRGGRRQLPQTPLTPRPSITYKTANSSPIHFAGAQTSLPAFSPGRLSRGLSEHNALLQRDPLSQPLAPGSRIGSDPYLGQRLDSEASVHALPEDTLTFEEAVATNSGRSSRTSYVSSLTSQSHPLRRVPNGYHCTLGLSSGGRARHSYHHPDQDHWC

`CSCC[C@@H]1NC(=O)[C@@H]2CSSC[C@H](NC(=O)CN)C(=O)N[C@@H](CSSC[C@@H](C(N)=O)NC(=O)[C@H](CC(C)C)NC(=O)[C@H](CC(N)=O)NC(=O)[C@@H]3CCCN3C(=O)[C@H](CC(N)=O)NC(=O)[C@H](CCCCN)NC(=O)[C@H](CC(C)C)NC1=O)C(=O)N[C@@H](CO)C(=O)N[C@@H](CC(N)=O)C(=O)N1CCC[C@H]1C(=O)N[C@@H](C)C(=O)N2` [Eu1.6] (H-GCCSNPACMLKNPNLC-NH2; disulfide 2-8, 3-16): in the data set on Beagle dogs, the “physiological impairments of baseline parameters (locomotion, cardiac and respiratory function)” value is “no physiological impairments”. For the same compound, in data set [1], the IC50 came out at 1.1 nM, the “maximum block of CaV2.2” value is reported as under 50% and the “reduction of peak current density” value is recorded as over 40%. The inhibition at 1 µM in data set [1] (HEK293, read-out: inhibition of depolarization-activated Ba2+ current amplitude) is over 30%. The Emax in data set [1] (HEK293, read-out: maximal effect (partial inhibitor)) stood at 40%.
